Data reported in US9796706B2, “Inhibitors of Jun N-terminal kinase” (IMAGO PHARMACEUTICALS, INC., priority 2009, dated 2017).

Legend:
Type in all cases: biochemical
Conditions in all cases: procedures of Example 14 (TR-FRET)
JNK3 = JNK3 (Homo sapiens (Human), UniProt P53779); assay: JNK3 TR-FRET kinase assay (Example 14)
Procedure, shortened: (§1)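 Two TR-FRET formats were used for each JNK isoform. In the direct one, preactivated aJNK phosphorylated EPIW-1 at about 1 mM final ATP (RT, 15 min). Both were EDTA-quenched and read by HTRF.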

JNK1 = JNK1 (Homo sapiens (Human), UniProt P45983); assay: JNK1 TR-FRET kinase assay (Example 14)
Procedure, shortened: as §1

JNK2 = JNK2 (Homo sapiens (Human), UniProt P45984); assay: JNK2 TR-FRET kinase assay (Example 14)
Procedure, shortened: as §1

Chain of JNK1 (P45983 other isoform, or with tags, fused parts or gaps isoform P45983-2, species assumed): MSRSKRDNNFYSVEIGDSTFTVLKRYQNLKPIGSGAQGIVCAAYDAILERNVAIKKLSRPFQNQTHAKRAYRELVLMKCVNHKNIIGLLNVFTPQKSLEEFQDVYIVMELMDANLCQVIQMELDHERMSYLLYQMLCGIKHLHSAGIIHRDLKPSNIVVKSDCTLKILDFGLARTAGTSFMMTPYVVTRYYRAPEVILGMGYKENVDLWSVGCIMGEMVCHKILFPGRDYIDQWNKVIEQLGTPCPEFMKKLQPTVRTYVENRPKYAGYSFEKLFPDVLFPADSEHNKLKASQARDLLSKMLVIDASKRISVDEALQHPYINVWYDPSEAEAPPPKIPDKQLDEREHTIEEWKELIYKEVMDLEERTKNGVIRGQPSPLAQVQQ
Chain of JNK2 (P45984 whole entry, species assumed): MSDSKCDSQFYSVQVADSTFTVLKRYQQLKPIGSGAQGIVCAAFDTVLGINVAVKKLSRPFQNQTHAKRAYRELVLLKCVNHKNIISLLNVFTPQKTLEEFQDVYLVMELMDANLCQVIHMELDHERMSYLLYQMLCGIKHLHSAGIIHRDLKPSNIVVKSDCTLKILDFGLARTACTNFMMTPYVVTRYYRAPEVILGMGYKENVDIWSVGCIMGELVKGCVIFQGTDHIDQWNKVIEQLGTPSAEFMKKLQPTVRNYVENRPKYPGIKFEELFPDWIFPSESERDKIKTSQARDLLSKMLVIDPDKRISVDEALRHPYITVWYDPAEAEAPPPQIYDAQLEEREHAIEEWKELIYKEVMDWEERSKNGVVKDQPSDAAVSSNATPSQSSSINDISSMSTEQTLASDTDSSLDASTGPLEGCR
Chain of JNK3 (P53779 whole entry, species assumed, canonical isoform): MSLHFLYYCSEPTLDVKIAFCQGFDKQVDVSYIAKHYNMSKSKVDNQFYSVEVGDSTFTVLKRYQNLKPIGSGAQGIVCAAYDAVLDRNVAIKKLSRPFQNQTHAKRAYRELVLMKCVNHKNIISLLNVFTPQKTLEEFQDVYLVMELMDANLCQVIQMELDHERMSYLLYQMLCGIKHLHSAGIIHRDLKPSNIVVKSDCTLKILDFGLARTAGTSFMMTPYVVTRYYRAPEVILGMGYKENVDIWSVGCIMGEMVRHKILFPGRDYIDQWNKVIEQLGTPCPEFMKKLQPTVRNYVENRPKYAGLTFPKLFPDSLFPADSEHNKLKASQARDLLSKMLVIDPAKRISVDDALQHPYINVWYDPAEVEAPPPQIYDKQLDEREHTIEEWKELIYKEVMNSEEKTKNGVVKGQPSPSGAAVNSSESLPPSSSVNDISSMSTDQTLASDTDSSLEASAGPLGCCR

SMILES	IC50 (JNK3) [nM]	IC50 (JNK1) [nM]	IC50 (JNK2) [nM]
O=C(Cc1cc(C(F)(F)F)c2cccnc2c1)Nc1scc(Br)c1-c1nnc[nH]1 [N-(4-bromo-3-(4H-1,2,4-triazol-3-yl)thiophen-2-yl)-2-(5-(trifluoromethyl)quinolin-7-yl)acetamide]	100 to 10000	100 to 10000	100 to 10000
O=C(Cc1cc(C(F)(F)F)cc2ncccc12)Nc1scc(Br)c1-c1nnc[nH]1 [N-(4-bromo-3-(4H-1,2,4-triazol-3-yl)thiophen-2-yl)-2-(7-(trifluoromethyl)quinolin-5-yl)acetamide]	100 to 10000	100 to 10000	100 to 10000
N#Cc1ccc2c(ccc(=O)n2CC(=O)Nc2scc(Cl)c2-c2nc[nH]n2)c1 [N-(4-chloro-3-(1H-1,2,4-triazol-3-yl)thiophen-2-yl)-2-(6-cyano-2-oxoquinolin-1(2H)-yl)acetamide]	< 100	< 100	< 100
O=C(CN1C(=O)CCc2ccccc21)Nc1scc(Cl)c1-c1ncn[nH]1 [N-(4-chloro-3-(1H-1,2,4-triazol-5-yl)thiophen-2-yl)-2-(2-oxo-3,4-dihydroquinolin-1(2H)-yl)acetamide]	< 100	< 100	< 100
O=C(Cn1c(=O)ccc2nc(C(F)(F)F)ccc21)Nc1scc(Cl)c1-c1ncn[nH]1 [N-(4-chloro-3-(1H-1,2,4-triazol-5-yl)thiophen-2-yl)-2-(2-oxo-6-(trifluoromethyl)-1,5-naphthyridin-1(2H)-yl)acetamide]	< 100	< 100	< 100
O=C(Cn1c(=O)ccc2cc(C(F)(F)F)ccc21)Nc1scc(Cl)c1-c1ncn[nH]1 [N-(4-chloro-3-(1H-1,2,4-triazol-5-yl)thiophen-2-yl)-2-(2-oxo-6-(trifluoromethyl)quinolin-1(2H)-yl)acetamide]	< 100	< 100	< 100
O=C(Cn1c(=O)ccn2nc(C(F)(F)F)cc12)Nc1scc(Cl)c1-c1ncn[nH]1 [N-(4-chloro-3-(1H-1,2,4-triazol-5-yl)thiophen-2-yl)-2-(5-oxo-2-(trifluoromethyl)pyrazolo[1,5-a]pyrimidin-4(5H)-yl)acetamide]	< 100	< 100	< 100
O=C(Cn1c(=O)ccn2nccc12)Nc1scc(Cl)c1-c1ncn[nH]1 [N-(4-chloro-3-(1H-1,2,4-triazol-5-yl)thiophen-2-yl)-2-(5-oxopyrazolo[1,5-a]pyrimidin-4(5H)-yl)acetamide]	< 100	< 100	< 100
O=C(Cc1ccc(C(F)(F)F)c2ncccc12)Nc1scc(Cl)c1-c1ncn[nH]1 [N-(4-chloro-3-(1H-1,2,4-triazol-5-yl)thiophen-2-yl)-2-(8-(trifluoromethyl)quinolin-5-yl)acetamide]	100 to 10000	< 100	100 to 10000
O=C(Cc1cccc2ncccc12)Nc1scc(Cl)c1-c1ncn[nH]1 [N-(4-chloro-3-(1H-1,2,4-triazol-5-yl)thiophen-2-yl)-2-(quinolin-5-yl)acetamide]	< 100	< 100	< 100
CCc1n[nH]c(-c2c(Cl)csc2NC(=O)CN2C(=O)CCc3ncccc32)n1 [N-(4-chloro-3-(3-ethyl-1H-1,2,4-triazol-5-yl)thiophen-2-yl)-2-(2-oxo-3,4-dihydro-1,5-naphthyridin-1(2H)-yl)acetamide]	< 100	< 100	100 to 10000
CC(C)c1n[nH]c(-c2c(Cl)csc2NC(=O)CN2C(=O)CCc3ncccc32)n1 [N-(4-chloro-3-(3-isopropyl-1H-1,2,4-triazol-5-yl)thiophen-2-yl)-2-(2-oxo-3,4-dihydro-1,5-naphthyridin-1(2H)-yl)acetamide]	100 to 10000	< 100	100 to 10000
Cc1n[nH]c(-c2c(Cl)csc2NC(=O)CN2C(=O)CCc3ncccc32)n1 [N-(4-chloro-3-(3-methyl-1H-1,2,4-triazol-5-yl)thiophen-2-yl)-2-(2-oxo-3,4-dihydro-1,5-naphthyridin-1(2H)-yl)acetamide]	< 100	< 100	< 100
O=C(CN1C(=O)CCc2ncccc21)Nc1scc(Cl)c1-c1nccs1 [N-(4-chloro-3-(thiazol-2-yl)thiophen-2-yl)-2-(2-oxo-3,4-dihydro-1,5-naphthyridin-1(2H)-yl)acetamide]	< 100	< 100	< 100

Second part, the compound after the results:

IC50 (JNK3) [nM]	IC50 (JNK1) [nM]	IC50 (JNK2) [nM]	SMILES
< 100	< 100	100 to 10000	O=C(Cc1cncc2ccccc12)Nc1scc(Br)c1-c1nnc[nH]1 [N-(4-bromo-3-(4H-1,2,4-triazol-3-yl)thiophen-2-yl)-2-(isoquinolin-4-yl)acetamide]
< 100	< 100	100 to 10000	O=C(Cc1ccnc2ccccc12)Nc1scc(Br)c1-c1nnc[nH]1 [N-(4-bromo-3-(4H-1,2,4-triazol-3-yl)thiophen-2-yl)-2-(quinolin-4-yl)acetamide]
< 100	< 100	< 100	O=C(CN1C(=O)CCc2ncccc21)Nc1scc(Br)c1-c1ncco1 [N-(4-bromo-3-(oxazol-2-yl)thiophen-2-yl)-2-(2-oxo-3,4-dihydro-1,5-naphthyridin-1(2H)-yl)acetamide]
< 100	< 100	100 to 10000	O=C(CN1C(=O)CCc2ncccc21)Nc1scc(Br)c1-c1nccs1 [N-(4-bromo-3-(thiazol-2-yl)thiophen-2-yl)-2-(2-oxo-3,4-dihydro-1,5-naphthyridin-1(2H)-yl)acetamide]
< 100	< 100	< 100	CN(C)CCn1cnc(-c2c(Cl)csc2NC(=O)Cn2c(=O)ccc3cc(C(F)(F)F)ccc32)n1 [N-(4-chloro-3-(1-(2-(dimethylamino)ethyl)-1H-1,2,4-triazol-3-yl)thiophen-2-yl)-2-(2-oxo-6-(trifluoromethyl)quinolin-1(2H)-yl)acetamide]
< 100	< 100	100 to 10000	CN1CCN(CCCn2cnc(-c3c(Cl)csc3NC(=O)Cn3c(=O)ccc4cc(C(F)(F)F)ccc43)n2)CC1 [N-(4-chloro-3-(1-(3-(4-methylpiperazin-1-yl)propyl)-1H-1,2,4-triazol-3-yl)thiophen-2-yl)-2-(2-oxo-6-(trifluoromethyl)quinolin-1(2H)-yl)acetamide]
< 100	< 100	< 100	CN(C)CCCn1cnc(-c2c(Cl)csc2NC(=O)Cn2c(=O)ccc3cc(C(F)(F)F)ccc32)n1 [N-(4-chloro-3-(1-(3-(dimethylamino)propyl)-1H-1,2,4-triazol-3-yl)thiophen-2-yl)-2-(2-oxo-6-(trifluoromethyl)quinolin-1(2H)-yl)acetamide]
< 100	< 100	< 100	O=C(Cn1c(=O)ccc2cc(C(F)(F)F)ccc21)Nc1scc(Cl)c1-c1ncn(CCCN2CCCC2)n1 [N-(4-chloro-3-(1-(3-(pyrrolidin-1-yl)propyl)-1H-1,2,4-triazol-3-yl)thiophen-2-yl)-2-(2-oxo-6-(trifluoromethyl)quinolin-1(2H)-yl)acetamide]
< 100	< 100	< 100	O=C(Cn1c(=O)ccc2cc(C(F)(F)F)ccc21)Nc1scc(Cl)c1-c1ncn(CCCN2CCOCC2)n1 [N-(4-chloro-3-(1-(3-morpholinopropyl)-1H-1,2,4-triazol-3-yl)thiophen-2-yl)-2-(2-oxo-6-(trifluoromethyl)quinolin-1(2H)-yl)acetamide]
< 100	< 100	< 100	Cn1cnc(-c2c(Cl)csc2NC(=O)CN2C(=O)CCc3ncccc32)n1 [N-(4-chloro-3-(1-methyl-1H-1,2,4-triazol-3-yl)thiophen-2-yl)-2-(2-oxo-3,4-dihydro-1,5-naphthyridin-1(2H)-yl)acetamide]
< 100	< 100	< 100	Cn1cnc(-c2c(Cl)csc2NC(=O)Cn2c(=O)ccc3nc(C(F)(F)F)ccc32)n1 [N-(4-chloro-3-(1-methyl-1H-1,2,4-triazol-3-yl)thiophen-2-yl)-2-(2-oxo-6-(trifluoromethyl)-1,5-naphthyridin-1(2H)-yl)acetamide]
< 100	< 100	< 100	Cn1cnc(-c2c(Cl)csc2NC(=O)Cn2c(=O)ccc3cnc(C(F)(F)F)cc32)n1 [N-(4-chloro-3-(1-methyl-1H-1,2,4-triazol-3-yl)thiophen-2-yl)-2-(2-oxo-7-(trifluoromethyl)-1,6-naphthyridin-1(2H)-yl)acetamide]
< 100	< 100	< 100	Cn1cnc(-c2c(Cl)csc2NC(=O)Cn2c(=O)ccn3nc(C(F)(F)F)cc23)n1 [N-(4-chloro-3-(1-methyl-1H-1,2,4-triazol-3-yl)thiophen-2-yl)-2-(5-oxo-2-(trifluoromethyl)pyrazolo[1,5-a]pyrimidin-4(5H)-yl)acetamide]
< 100	< 100	< 100	Cn1cnc(-c2c(Cl)csc2NC(=O)Cn2c(=O)ccn3nccc23)n1 [N-(4-chloro-3-(1-methyl-1H-1,2,4-triazol-3-yl)thiophen-2-yl)-2-(5-oxopyrazolo[1,5-a]pyrimidin-4(5H)-yl)acetamide]
< 100	< 100	< 100	O=C(CN1C(=O)CCc2ncccc21)Nc1scc(Cl)c1-c1nc[nH]n1 [N-(4-chloro-3-(1H-1,2,4-triazol-3-yl)thiophen-2-yl)-2-(2-oxo-3,4-dihydro-1,5-naphthyridin-1(2H)-yl)acetamide]
< 100	< 100	< 100	O=C(Cn1c(=O)ccc2cnc(C(F)(F)F)cc21)Nc1scc(Cl)c1-c1nc[nH]n1 [N-(4-chloro-3-(1H-1,2,4-triazol-3-yl)thiophen-2-yl)-2-(2-oxo-7-(trifluoromethyl)-1,6-naphthyridin-1(2H)-yl)acetamide]
